Laboratory results published in US12091411B2, “IRAK degraders and uses thereof” (Kymera Therapeutics, Inc., priority 2022, dated 2024).
Like-named read-outs stand apart in the source and are kept apart here.

Target: T1, IRAK4 (Homo sapiens, UniProt Q9NWZ3)
T1 construct: Degradation of IRAK4 in OCI-LY10 was quantitatively measured using Meso Scale Discovery technology; endogenous in cells; host or cells: OCI-LY10
T1 sequence (Q9NWZ3 1-460): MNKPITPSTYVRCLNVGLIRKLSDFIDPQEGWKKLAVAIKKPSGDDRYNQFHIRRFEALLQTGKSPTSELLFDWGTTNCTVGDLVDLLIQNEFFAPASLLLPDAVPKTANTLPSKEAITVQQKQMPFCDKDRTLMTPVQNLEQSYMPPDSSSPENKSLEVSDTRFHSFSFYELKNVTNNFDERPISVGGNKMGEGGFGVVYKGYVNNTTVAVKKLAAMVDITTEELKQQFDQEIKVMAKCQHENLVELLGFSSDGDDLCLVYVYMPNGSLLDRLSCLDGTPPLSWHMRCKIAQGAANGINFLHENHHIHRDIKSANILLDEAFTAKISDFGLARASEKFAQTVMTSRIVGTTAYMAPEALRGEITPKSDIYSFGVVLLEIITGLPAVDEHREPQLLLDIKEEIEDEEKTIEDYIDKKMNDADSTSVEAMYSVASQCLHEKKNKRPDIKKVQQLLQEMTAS
Test: IRAK4 MSD Degradation in OCI-LY10
Assay type: cell-based
Settings: OCI-LY10 cells, MSD
Outline: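 OCI-LY10 cells exposed to 8-point 1:3 compound series (top 1 to 10 μM) for 4 to 24 h at 37 °C, 5% CO2. Lysate IRAK4 quantified by MSD sandwich immunoassay. DC50 from three-parameter logistic fit, binned A (<0.01 μM) to D (>0.2 μM or not tested).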

[1] = 4 hrs incubation, read-out: IRAK4 degradation in OCI-LY10 at 4 hrs: DC50
[2] = 24 hrs incubation, read-out: IRAK4 degradation in OCI-LY10 at 24 hrs: DC50

Structure (SMILES) | DC50 [1] [nM] | DC50 [2] [nM]
O=C1CCC(c2cc(C#CCN3CCN(C[C@H]4CC[C@@H](n5cc(NC(=O)c6cnn7ccc(N8C[C@H]9C[C@@H]8CO9)nc67)c(C(F)F)n5)CC4)CC3)ccc2Cl)C(=O)N1 (stereo partly drawn) [I-259] | > 200 | > 200
Cn1c(=O)n(C2CCC(=O)NC2=O)c2cccc(C#CCOC3CCN(C[C@H]4CC[C@H](n5cc(NC(=O)c6cccc(C#N)n6)c(C(F)F)n5)CC4)CC3)c21 (stereo partly drawn) [I-260] | > 200 | > 200
Cn1c(=O)n(C2CCC(=O)NC2=O)c2cccc(C#CCN3CCN(C[C@H]4CC[C@H](n5cc(NC(=O)c6cccc(C#N)n6)c(C(F)F)n5)CC4)CC3)c21 (stereo partly drawn) [I-261] | > 200 | > 200
Cn1c(=O)n(C2CCC(=O)NC2=O)c2cccc(C#CCOC3CCN(C[C@H]4CC[C@H](n5cc(NC(=O)c6cccc(C#N)n6)c(C(C)(C)O)n5)CC4)CC3)c21 (stereo partly drawn) [I-262] | > 200 | > 200
Cn1c(=O)n(C2CCC(=O)NC2=O)c2cccc(C#CCN3CCN(C[C@H]4CC[C@H](n5cc(NC(=O)c6cccc(C#N)n6)c(C(C)(C)O)n5)CC4)CC3)c21 (stereo partly drawn) [I-263] | > 200 | > 200
Cn1c(=O)n(C2CCC(=O)NC2=O)c2cccc(C#CCOC3CCN(C[C@H]4CC[C@H](n5cc(NC(=O)c6cncc(C#N)c6)c(C(F)F)n5)CC4)CC3)c21 (stereo partly drawn) [I-264] | > 200 | > 200
Cn1c(=O)n(C2CCC(=O)NC2=O)c2cccc(C#CCN3CCN(C[C@H]4CC[C@H](n5cc(NC(=O)c6cncc(C#N)c6)c(C(F)F)n5)CC4)CC3)c21 (stereo partly drawn) [I-265] | > 200 | > 200
Cn1c(=O)n(C2CCC(=O)NC2=O)c2cccc(C#CCOC3CCN(C[C@H]4CC[C@H](n5cc(NC(=O)c6cncc(C#N)c6)c(C(C)(C)O)n5)CC4)CC3)c21 (stereo partly drawn) [I-266] | > 200 | > 200
Cn1c(=O)n(C2CCC(=O)NC2=O)c2cccc(C#CCN3CCN(C[C@H]4CC[C@H](n5cc(NC(=O)c6cncc(C#N)c6)c(C(C)(C)O)n5)CC4)CC3)c21 (stereo partly drawn) [I-267] | > 200 | > 200
Cc1ccc(-c2nn([C@H]3CC[C@H](CN4CCC(OCC#Cc5cccc6c5n(C)c(=O)n6C5CCC(=O)NC5=O)CC4)CC3)cc2NC(=O)c2cncc(C#N)c2)nc1 (stereo partly drawn) [I-268] | > 200 | > 200
Cc1ccc(-c2nn([C@H]3CC[C@H](CN4CCN(CC#Cc5cccc6c5n(C)c(=O)n6C5CCC(=O)NC5=O)CC4)CC3)cc2NC(=O)c2cncc(C#N)c2)nc1 (stereo partly drawn) [I-269] | > 200 | > 200
CN(C[C@H]1CC[C@H](n2cc(CC(=O)c3cnn4ccc(N5CCC(C)(C)CC5)nc34)c(C(F)F)n2)CC1)C1CCN(c2cccc3c2n(C)c(=O)n3C2CCC(=O)NC2=O)CC1 (stereo partly drawn) [I-270] | > 200 | 10 to 100
CC1CCN(c2ccn3ncc(C(=O)Nc4cn([C@H]5CC[C@H](CN(C)C6CCN(c7cccc8c7n(C)c(=O)n8C7CCC(=O)NC7=O)CC6)CC5)nc4C(F)F)c3n2)CC1 (stereo partly drawn) [I-271] | > 200 | < 10
CN(C[C@H]1CC[C@H](n2cc(NC(=O)c3cnn4ccc(N5CCC6(CC5)CC6)nc34)c(C(F)F)n2)CC1)C1CCN(c2cccc3c2n(C)c(=O)n3C2CCC(=O)NC2=O)CC1 (stereo partly drawn) [I-272] | > 200 | < 10
CN(C[C@H]1CC[C@H](n2cc(NC(=O)c3cnn4ccc(N5CCC(F)(F)CC5)nc34)c(C(F)F)n2)CC1)C1CCN(c2cccc3c2n(C)c(=O)n3C2CCC(=O)NC2=O)CC1 (stereo partly drawn) [I-273] | > 200 | < 10
CN(C[C@H]1CC[C@H](n2cc(NC(=O)c3cnn4ccc(N5CC6(CC6)C5)nc34)c(C(F)F)n2)CC1)C1CCN(c2cccc3c2n(C)c(=O)n3C2CCC(=O)NC2=O)CC1 (stereo partly drawn) [I-274] | > 200 | < 10
CN(C[C@H]1CC[C@H](n2cc(NC(=O)c3cnn4ccc(N5CC(C)(C)C5)nc34)c(C(F)F)n2)CC1)C1CCN(c2cccc3c2n(C)c(=O)n3C2CCC(=O)NC2=O)CC1 (stereo partly drawn) [I-275] | > 200 | < 10
CN(C[C@H]1CC[C@H](n2cc(NC(=O)c3cnn4ccc(N5CC(F)(F)C5)nc34)c(C(F)F)n2)CC1)C1CCN(c2cccc3c2n(C)c(=O)n3C2CCC(=O)NC2=O)CC1 (stereo partly drawn) [I-276] | > 200 | < 10
CN(C[C@H]1CC[C@H](n2cc(NC(=O)c3cnn4ccc(N5CCC5)nc34)c(C(F)F)n2)CC1)C1CCN(c2cccc3c2n(C)c(=O)n3C2CCC(=O)NC2=O)CC1 (stereo partly drawn) [I-277] | > 200 | < 10
CN(C[C@H]1CC[C@H](n2cc(NC(=O)c3cnn4ccc(N5CCCC5)nc34)c(C(F)F)n2)CC1)C1CCN(c2cccc3c2n(C)c(=O)n3C2CCC(=O)NC2=O)CC1 (stereo partly drawn) [I-278] | > 200 | < 10

Structure (SMILES) | DC50 [1] [nM] | DC50 [2] [nM]
Cn1c(=O)n(C2CCC(=O)NC2=O)c2cccc(C#CCN3CCN(C[C@H]4CC[C@H](n5cc(NC(=O)c6cnn7ccc(N8C[C@H]9C[C@@H]8CO9)nc67)c(C(C)(C)O)n5)CC4)CC3)c21 (stereo partly drawn) [I-279] | > 200 | > 200
Cn1c(=O)n(C2CCC(=O)NC2=O)c2cccc(C#CCOC3CCN(C[C@H]4CC[C@H](n5cc(NC(=O)c6cnn7ccc(N8C[C@H]9C[C@@H]8CO9)nc67)c(F)n5)CC4)CC3)c21 (stereo partly drawn) [I-280] | > 200 | > 200
Cn1c(=O)n(C2CCC(=O)NC2=O)c2cccc(C#CCN3CCN(C[C@H]4CC[C@H](n5cc(NC(=O)c6cnn7ccc(N8C[C@H]9C[C@@H]8CO9)nc67)c(F)n5)CC4)CC3)c21 (stereo partly drawn) [I-281] | > 200 | > 200
CC1CCN(c2ccn3ncc(C(=O)Nc4cn([C@H]5CC[C@H](CN6CCN(CC#Cc7cccc8c7n(C)c(=O)n8C7CCC(=O)NC7=O)CC6)CC5)nc4C(F)F)c3n2)CC1 (stereo partly drawn) [I-282] | > 200 | 10 to 100
Cn1c(=O)n(C2CCC(=O)NC2=O)c2cccc(C#CCN3CCN(C[C@H]4CC[C@H](n5cc(NC(=O)c6cnn7ccc(N8CCCCCC8)nc67)c(C(F)F)n5)CC4)CC3)c21 (stereo partly drawn) [I-283] | > 200 | 10 to 100
Cn1c(=O)n(C2CCC(=O)NC2=O)c2cccc(C#CCN3CCN(C[C@H]4CC[C@H](n5cc(NC(=O)c6cnn7cccnc67)c(C(C)(C)O)n5)CC4)CC3)c21 (stereo partly drawn) [I-284] | > 200 | > 200
Cn1c(=O)n(C2CCC(=O)NC2=O)c2cccc(C#CCN3CCN(C[C@H]4CC[C@H](n5cc(NC(=O)c6cnn7ccc(N8CCC8)nc67)c(C(C)(C)O)n5)CC4)CC3)c21 (stereo partly drawn) [I-285] | > 200 | > 200
Cn1c(=O)n(C2CCC(=O)NC2=O)c2cccc(C#CCN3CCN(C[C@H]4CC[C@H](n5cc(NC(=O)c6cnn7ccc(N8CCOC9(CC9)C8)nc67)c(C(F)F)n5)CC4)CC3)c21 (stereo partly drawn) [I-286] | > 200 | < 10
Cn1c(=O)n(C2CCC(=O)NC2=O)c2cccc(C#CCN3CCN(C[C@H]4CC[C@H](n5cc(NC(=O)c6cnn7ccc(N8CCOC9(CCC9)C8)nc67)c(C(F)F)n5)CC4)CC3)c21 (stereo partly drawn) [I-287] | > 200 | < 10
CC1CN(c2ccn3ncc(C(=O)Nc4cn([C@H]5CC[C@H](CN6CCN(CC#Cc7cccc8c7n(C)c(=O)n8C7CCC(=O)NC7=O)CC6)CC5)nc4C(F)F)c3n2)CCO1 (stereo partly drawn) [I-288] | > 200 | > 200
CC1CN(c2ccn3ncc(C(=O)Nc4cn([C@H]5CC[C@H](CN6CCN(CC#Cc7cccc8c7n(C)c(=O)n8C7CCC(=O)NC7=O)CC6)CC5)nc4C(F)F)c3n2)CC(C)O1 (stereo partly drawn) [I-289] | > 200 | > 200
Cn1c(=O)n(C2CCC(=O)NC2=O)c2cccc(C#CCN3CCN(C[C@H]4CC[C@H](n5cc(NC(=O)c6cnn7ccc(N8C[C@H]9CC[C@@H](C8)O9)nc67)c(C(F)F)n5)CC4)CC3)c21 (stereo partly drawn) [I-290] | > 200 | < 10
Cn1c(=O)n(C2CCC(=O)NC2=O)c2cccc(C#CCN3CCN(C[C@H]4CC[C@H](n5cc(NC(=O)c6cnn7ccc(N8CCCOCC8)nc67)c(C(F)F)n5)CC4)CC3)c21 (stereo partly drawn) [I-291] | > 200 | < 10
Cc1ccc(-c2nn([C@H]3CC[C@H](CN(C)C4CCN(c5cccc6c5n(C)c(=O)n6C5CCC(=O)NC5=O)CC4)CC3)cc2NC(=O)c2cnn3cccnc23)nc1 (stereo partly drawn) [I-292] | > 200 | < 10
Cc1ccc(-c2nn([C@H]3CC[C@H](CN(C)C4CCN(c5cccc6c5n(C)c(=O)n6C5CCC(=O)NC5=O)CC4)CC3)cc2NC(=O)c2cnn3cccnc23)c(F)c1 (stereo partly drawn) [I-293] | > 200 | > 200
Cn1c(=O)n(C2CCC(=O)NC2=O)c2cccc(C#CCN3CCN(C[C@H]4CC[C@H](n5cc(NC(=O)c6cnn7ccc(N8CCSCC8)nc67)c(C(F)F)n5)CC4)CC3)c21 (stereo partly drawn) [I-294] | > 200 | < 10
Cn1c(=O)n(C2CCC(=O)NC2=O)c2cccc(C#CCN3CCN(C[C@H]4CC[C@H](n5cc(NC(=O)c6cnn7ccc(N8CCS(=O)(=O)CC8)nc67)c(C(F)F)n5)CC4)CC3)c21 (stereo partly drawn) [I-295] | > 200 | < 10
Cn1c(=O)n(C2CCC(=O)NC2=O)c2cccc(C#CCN3CCN(C[C@H]4CC[C@H](n5cc(NC(=O)c6cnn7ccc(N8CCC9(CC8)COC9)nc67)c(C(F)F)n5)CC4)CC3)c21 (stereo partly drawn) [I-296] | 10 to 100 | > 200
CN1CC2(CCN(c3ccn4ncc(C(=O)Nc5cn([C@H]6CC[C@H](CN7CCN(CC#Cc8cccc9c8n(C)c(=O)n9C8CCC(=O)NC8=O)CC7)CC6)nc5C(F)F)c4n3)CC2)C1 (stereo partly drawn) [I-297] | > 200 | > 200
